In series [1] the test system is NbALFA^ST (SEQ ID NO: 133). Kind of series: Off-rate assay: peptide elution of ALFA-tagged shGFP2 fusions from ALFA Selector^ST resin. The format is binding, Alpaca.
Description: After washing 4 times with PBS, the beads were suspended in a 10-fold excess of PBS containing 200 μM ALFA^ST peptide (Ac-[sequence]-Amide, SEQ ID NO: 179) and gently mixed at room temperature. At indicated time points, specific elution from the beads was quantified using the GFP fluorescence released into the supernatant. Shown are mean fluorescence values from three independent experiments performed in parallel and standard deviations for each time point. […] C, 10 μl of ALFA Selector^ST resin saturated with either ALFA^ST-shGFP2 (top row) or ALFA^PE-shGFP2 (bottom row) were transferred into 8-well PCR strips. After removing remaining liquid, the beads were incubated with 10 μl of the indicated substances for 60 min at room temperature. Photos were taken after sedimentation of the beads.
20 μl ALFA Selector^ST or ALFA Selector^PE (NanoTag Biotechnologies) was saturated with the respective recombinant target protein. After washing 4× with PBS, the beads were suspended in a 10-fold excess of PBS containing 200 μM free ALFA^ST peptide and mixed at 25° C. Control reactions were carried out without peptide. At indicated time points, specific elution from the beads was quantified using the GFP fluorescence released into the supernatant (Q-Bit 3.0; Thermo-Fischer Scientific). Three independent experiments were performed in parallel. Mean values, standard deviations and exponential fits were calculated using GraphPad Prism 5.0. Photographic pictures were taken upon UV illumination using a Nikon D700 equipped with a 105 mm macro lens (Nikon).
The subject of series [2] is NbALFA^PE (SEQ ID NO: 134). As to the kind of experiment: Off-rate assay: peptide elution of ALFA^ST-tagged shGFP2 from ALFA Selector^PE resin. The format is binding, Alpaca. The note with it: for t1/2: peptide elution from ALFA Selector^PE. Here is the method: FIG. 8: Interaction of ALFA^ST-tagged proteins with ALFA Selector^ST and ALFA Selector^PE resins. • A; Sketch of ALFA Selector resins bound to shGFP2-ALFA^ST. In this sketch, the ALFA Selector resin could be ALFA Selector^ST or ALFA Selector^PE. • B and C; Peptide elution from NbALFA-coupled affinity resins. […] To estimate off-rates, the resins were suspended PBS containing an excess of free ALFA^ST peptide and incubated at 25° C. Control reactions were carried out without peptide. At indicated time points, shGFP2 released from the resin was quantified. […] Lines represent fits to a single exponential. Efficient peptide elution of shGFP2-ALFA^ST from ALFA Selector^E was observed already after 15-20 min at room temperature. […] A photo was taken upon UV illumination after 3 h of elution (C). • D; Resistance towards stringent washing steps. ALFA Selector variants described in B were charged with either ALFA^ST-shGFP2 or shGFP2-ALFA^ST and incubated with a 10-fold volume of the indicated substances for 1 h at 25° C. with shaking. Without further washing steps, photos were taken upon UV illumination after sedimentation of the beads. • E; Resistance towards non-physiological pH. Similar to D. Here, however, the resin was washed to remove non-bound material after incubating at indicated pH for 30 min. Photos were taken after re-equilibration in PBS to allow for recovery of the GFP fluorescence.
After washing with PBS, the beads were suspended in a 10-fold excess of PBS containing 200 μM free ALFA^ST peptide and gently mixed at 25° C. Control reactions were carried out without peptide. At indicated time points, specific elution from the beads was quantified using the GFP fluorescence released into the supernatant. Shown are mean fluorescence readings of three experiments as well as standard deviations for each time point. Lines represent fits to a single exponential. Half times are given for peptide elution from ALFA Selector^PE only. […] FIG. 10A recapitulates data shown in FIG. 8B and is repeated here to allow for a direct comparison. Left panels: Sketch illustrating the experimental setup. The ALFA Selector resin could be ALFA Selector^ST or ALFA Selector^PE; middle panels: Experiments performed with ALFA Selector^ST; right panel: Experiments performed with ALFA Selector^PE.
Next, we site-specifically immobilized NbALFA^ST on an agarose-based resin with ultra-low background via a hydrophilic and flexible linker. Binding to the nanobody-coupled resin was analyzed using an ALFA^ST-tagged GFP variant (shGFP2; Frey, S. et al. Surface Properties Determining Passage Rates of Proteins through Nuclear Pores. Cell 174, 202-217.e9 (2018); FIG. 8A, B). As expected, shGFP2-ALFA^ST efficiently and tightly bound to the resulting resin. […]

The conditions of series [3]: property of tag; cited from earlier work.
Series [4] relates to ALFA^ST-tagged target proteins (ALFA^ST-Vimentin or Tom70-EGFP-ALFA^ST). As to the kind of experiment: Intrabody-based detection in co-transfected COS-7 cells. The format is cell-based. Conditions: co-expression in cytoplasm. The text has this:
Grey boxes indicate CDRs 1-3 (AbM definition, SEQ ID NOs: 115-117). • C: COS-7 cells transfected with Tom70-EGFP-ALFA^ST (upper row) or Tom70-EGFP-ALFA^PE (lower row) were fixed with 4% paraformaldehyde. […] First column: FluoTag-X2 anti-ALFA; second column: target detection using the intrinsic EGFP fluorescence; third column: overlay incl. […] Right column: Sketch of ALFA-tagged vimentins detected by fluorescently labeled NbALFA^ST. • E: Intrabody-based detection of ALFA^ST-tagged proteins. COS-7 cells were co-transfected with an NbALFA^ST-mScarlet-I fusion and ALFA^ST_tagged target proteins. Target proteins were detected via EGFP fluorescence (for TOM70-EGFP-ALFA^ST) or immunofluorescence using FluoTag anti-ALFA AbberiorStar635P (for ALFA^ST-FLAG-Vimentin). In parallel, NbALFA^ST-mScarlet-I was detected by the red mScarlet-I fluorescence. Note the excellent co-localization between the target protein (left column) and the mScarlet-I signal (middle column).
We next wanted to know if our NbALFA^ST can also be used as an intrabody. […]

These results are taken from patent US12365705B2, “Epitope tags recognized by specific binders” (NANOTAG BIOTECHNOLOGIES GmbH, priority 2018, dated 2025).

A value given as a limit tells only on which side of the number the result lay.

Sequence of NbALFA^PE (SEQ ID NO: 134) (as listed by the source): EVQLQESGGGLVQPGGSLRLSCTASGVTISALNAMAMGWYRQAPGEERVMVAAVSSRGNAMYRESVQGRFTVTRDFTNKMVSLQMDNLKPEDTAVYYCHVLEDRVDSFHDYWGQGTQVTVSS

As for “ALFA^ST-shGFP2: GFP variant shGFP2 with N-terminal ALFA^ST tag”, the “protein remained on the resin” value in series [1] (after 90 minutes competition with 10 column volumes of 200 μM ALFA^ST peptide) is over 95%. For the same molecule, in series [2] (N-terminal ALFA^ST tag), the t1/2 was about 0.833 min.

“shGFP2-ALFA^ST: GFP variant shGFP2 with C-terminal ALFA^ST tag”: the “protein remained on the resin” value in series [1] (after 60 minutes competition with 10 column volumes of 200 μM ALFA^ST peptide) is recorded as over 95%. In series [1] (excess of free ALFA^ST peptide (200 μM)), the “peptide elution from ALFA Selector^ST” value is “inefficient even after prolonged incubation”. Besides, the “time to efficient release from ALFA Selector^PE” value in series [2] (native conditions, room temperature, competition with free ALFA^ST peptide) fell in the range of 15 to 20 min. In addition, the “washing time over which target protein remained stably bound to ALFA Selector^PE” value in series [2] (no free peptide) is listed as over 1 h. This molecule registered a t1/2 in series [2] (C-terminal ALFA^ST tag) of about 3 min.

YPYDVPDYA [HA-tag]: the Water solubility result in series [3] is “poor”.

B1: NbALFA^ST fused to mScarlet-I: NbALFA^ST fused to red fluorescent protein mScarlet-I, used as intrabody (protein)
chain: MGSGDASDSEVQLQESGGGLVQPGGSLRLSCTASGVTISALNAMAMGWYRQAPGERRVMVAAVSERGNAMYRESVQGRFTVTRDFTNKMVSLQMDNLKPEDTAVYYCHVLEDRVDSFHDYWGQGTQVTVSSEPKTPKPQTSGSTGENVATMVSKGEAVIKEFMRFKVHMEGSMNGHEFEIEGEGEGRPYEGTQTAKLKVTKGGPLPFSWDILSPQFMYGSRAFIKHPADIPDYYKQSFPEGFKWERVMNFEDGGAVTVTQDTSLEDGTLIYKVKLRGTNFPPDGPVMQKKTMGWEASTERLYPEDGVLKGDIKMALRLKDGGRYLADFKTTYKAKKPVQMPGAYNVDRKLDITSHNEDYTVVEQYERSEGRHSTGGMDELYK
modifications: fusion protein
notes: NbALFA^ST fused to red fluorescent protein mScarlet-I, used as intrabody
Take B1: the “co-localization of mScarlet-I signal with target protein” value in series [4] is reported as “robustly co-localized”.
